Like-named read-outs stand apart in the source and are kept apart here. Starred links: 1 amine or outer side, 2 acyl side, 3 side chain; linkers in the order of their positions; H or OH if unused. Residues, ends and D or L forms follow the SMILES beside them. Groups on a side chain read outwards from the residue. *: point of attachment. C18 diacid = O=C(O)CCCCCCCCCCCCCCCCC(=O)*; γGlu = O=C(O)[C@H](CCC(=O)[*:2])N[*:1]; AEEA = NCCOCCOCC(=O)O
Molecular target: T1, human CRHR2b (Homo sapiens, UniProt Q13324)
T1 construct: expressed in transfected cells; host or cells: Chinese Hamster Ovary (CHO) cells, transient transfection
T1 sequence (Q13324 1-438 isoform Q13324-2): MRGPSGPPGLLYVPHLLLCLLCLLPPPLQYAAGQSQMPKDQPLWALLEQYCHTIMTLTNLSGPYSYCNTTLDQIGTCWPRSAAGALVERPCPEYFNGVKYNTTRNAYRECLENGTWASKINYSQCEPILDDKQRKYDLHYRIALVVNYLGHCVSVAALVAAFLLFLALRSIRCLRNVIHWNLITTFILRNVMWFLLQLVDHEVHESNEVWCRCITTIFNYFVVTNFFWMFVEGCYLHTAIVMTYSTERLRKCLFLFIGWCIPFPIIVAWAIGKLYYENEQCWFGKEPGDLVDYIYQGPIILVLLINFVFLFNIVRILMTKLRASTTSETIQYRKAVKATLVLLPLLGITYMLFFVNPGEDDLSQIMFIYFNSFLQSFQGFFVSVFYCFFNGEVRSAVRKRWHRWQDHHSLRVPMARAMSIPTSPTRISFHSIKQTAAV
Assay: human CRHR2b cell-based cAMP assay
Outline: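 ED50 values are means ± SEM over several runs, curve-fitted from cAMP in pmol, calibrated against unlabeled-cAMP standards. Detection was HTRF competition, ratio 665/620 nm, after 30 min agonist exposure at 37 °C.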

[1] = cAMP assay, Table 26, compounds of Example 9, read-out: hCRHR2b Average EC50

SMILES | EC50 [1] [nM] | EC50 [nM]
CC[C@H](C)[C@H](N)C(=O)N[C@H](C(=O)N[C@@H](CC(C)C)C(=O)N[C@@H](CO)C(=O)N[C@@H](CC(C)C)C(=O)N[C@@H](CC(=O)O)C(=O)N[C@H](C(=O)N1CCC[C@H]1C(=O)N[C@H](C(=O)NCC(=O)N[C@@H](CC(C)C)C(=O)N[C@@H](CC(C)C)C(=O)N[C@@H](CCC(N)=O)C(=O)N[C@H](C(=O)N[C@@H](CC(C)C)C(=O)N[C@@H](CC(C)C)C(=O)N[C@@H](CCC(=O)O)C(=O)N[C@@H](CCC(N)=O)C(=O)N[C@@H](CCC(=O)O)C(=O)N[C@@H](CCCCN)C(=O)N[C@@H](CCC(N)=O)C(=O)N[C@@H](CCC(=O)O)C(=O)N[C@@H](CCCCN)C(=O)N[C@@H](CCC(=O)O)C(=O)N[C@@H](CCCCN)C(=O)N[C@@H](CCC(N)=O)C(=O)N[C@@H](CCC(N)=O)C(=O)N[C@@H](C)C(=O)N[C@@H](CCCCNC(=O)COCCOCCNC(=O)COCCOCCNC(=O)CC[C@H](NC(=O)CC[C@H](NC(=O)CCCCCCCCCCCCCCCCC(=O)O)C(=O)O)C(=O)O)C(=O)N[C@H](C(=O)N[C@@H](CC(N)=O)C(=O)N[C@@H](C)C(=O)N[C@@H](CCC(N)=O)C(=O)N[C@H](C(=O)N[C@@H](CC(C)C)C(=O)N[C@@H](C)C(=O)N[C@@H](Cc1c[nH]cn1)C(=O)N[C@H](C(N)=O)C(C)C)[C@@H](C)CC)[C@@H](C)O)[C@@H](C)CC)[C@@H](C)CC)C(C)C)C(C)C [Compound 48] (H-IVLSLDVPIGLLQILLEQEKQEKEKQQAK([AEEA-AEEA-γGlu-γGlu-C18 diacid])TNAQILAHV-NH2) | 3.61 | 
CC[C@H](C)[C@H](N)C(=O)N[C@H](C(=O)N[C@@H](CC(C)C)C(=O)N[C@@H](CO)C(=O)N[C@@H](CC(C)C)C(=O)N[C@@H](CC(=O)O)C(=O)N[C@H](C(=O)N1CCC[C@H]1C(=O)N[C@H](C(=O)NCC(=O)N[C@@H](CC(C)C)C(=O)N[C@@H](CC(C)C)C(=O)N[C@@H](CCC(N)=O)C(=O)N[C@H](C(=O)N[C@@H](CC(C)C)C(=O)N[C@@H](CC(C)C)C(=O)N[C@@H](CCCCNC(=O)COCCOCCNC(=O)COCCOCCNC(=O)CC[C@H](NC(=O)CC[C@H](NC(=O)CCCCCCCCCCCCCCCCC(=O)O)C(=O)O)C(=O)O)C(=O)N[C@@H](CCC(N)=O)C(=O)N[C@@H](CCC(=O)O)C(=O)N[C@@H](CCCCN)C(=O)N[C@@H](CCC(N)=O)C(=O)N[C@@H](CCC(=O)O)C(=O)N[C@@H](CCCCN)C(=O)N[C@@H](CCC(=O)O)C(=O)N[C@@H](CCCCN)C(=O)N[C@@H](CCC(N)=O)C(=O)N[C@@H](CCC(N)=O)C(=O)N[C@@H](C)C(=O)N[C@H](C(=O)N[C@H](C(=O)N[C@@H](CC(N)=O)C(=O)N[C@@H](C)C(=O)N[C@@H](CCC(N)=O)C(=O)N[C@H](C(=O)N[C@@H](CC(C)C)C(=O)N[C@@H](C)C(=O)N[C@@H](CCC(N)=O)C(=O)N[C@H](C(N)=O)C(C)C)[C@@H](C)CC)[C@@H](C)O)[C@@H](C)O)[C@@H](C)CC)[C@@H](C)CC)C(C)C)C(C)C [Compound 50] (H-IVLSLDVPIGLLQILLK([AEEA-AEEA-γGlu-γGlu-C18 diacid])QEKQEKEKQQATTNAQILAQV-NH2) |  | 3.56
CC[C@H](C)[C@H](N)C(=O)N[C@H](C(=O)N[C@@H](CC(C)C)C(=O)N[C@@H](CO)C(=O)N[C@@H](CC(C)C)C(=O)N[C@@H](CC(=O)O)C(=O)N[C@H](C(=O)N1CCC[C@H]1C(=O)N[C@H](C(=O)NCC(=O)N[C@@H](CC(C)C)C(=O)N[C@@H](CC(C)C)C(=O)N[C@@H](CCC(N)=O)C(=O)N[C@H](C(=O)N[C@@H](CC(C)C)C(=O)N[C@@H](CC(C)C)C(=O)N[C@@H](CCC(=O)O)C(=O)N[C@@H](CCC(N)=O)C(=O)N[C@@H](CCC(=O)O)C(=O)N[C@@H](CCCCN)C(=O)N[C@@H](CCC(N)=O)C(=O)N[C@@H](CCC(=O)O)C(=O)N[C@@H](CCCCN)C(=O)N[C@@H](CCC(=O)O)C(=O)N[C@@H](CCCCN)C(=O)N[C@@H](CCCCNC(=O)COCCOCCNC(=O)COCCOCCNC(=O)CC[C@H](NC(=O)CC[C@H](NC(=O)CCCCCCCCCCCCCCCCC(=O)O)C(=O)O)C(=O)O)C(=O)N[C@@H](CCC(N)=O)C(=O)N[C@@H](C)C(=O)N[C@H](C(=O)N[C@H](C(=O)N[C@@H](CC(N)=O)C(=O)N[C@@H](C)C(=O)N[C@@H](CCC(N)=O)C(=O)N[C@H](C(=O)N[C@@H](CC(C)C)C(=O)N[C@@H](C)C(=O)N[C@@H](CCC(N)=O)C(=O)N[C@H](C(N)=O)C(C)C)[C@@H](C)CC)[C@@H](C)O)[C@@H](C)O)[C@@H](C)CC)[C@@H](C)CC)C(C)C)C(C)C [Compound 51] (H-IVLSLDVPIGLLQILLEQEKQEKEKK([AEEA-AEEA-γGlu-γGlu-C18 diacid])QATTNAQILAQV-NH2) | 2.42 | 
CC[C@H](C)[C@H](N)C(=O)N[C@H](C(=O)N[C@@H](CC(C)C)C(=O)N[C@@H](CO)C(=O)N[C@@H](CC(C)C)C(=O)N[C@@H](CC(=O)O)C(=O)N[C@H](C(=O)N1CCC[C@H]1C(=O)N[C@H](C(=O)NCC(=O)N[C@@H](CC(C)C)C(=O)N[C@@H](CC(C)C)C(=O)N[C@@H](CCC(N)=O)C(=O)N[C@H](C(=O)N[C@@H](CC(C)C)C(=O)N[C@@H](CC(C)C)C(=O)N[C@@H](CCCCNC(=O)COCCOCCNC(=O)COCCOCCNC(=O)CC[C@H](NC(=O)CC[C@H](NC(=O)CCCCCCCCCCCCCCCCC(=O)O)C(=O)O)C(=O)O)C(=O)N[C@@H](CCC(N)=O)C(=O)N[C@@H](CCC(=O)O)C(=O)N[C@@H](CCCCN)C(=O)N[C@@H](CCC(N)=O)C(=O)N[C@@H](CCC(=O)O)C(=O)N[C@@H](CCCCN)C(=O)N[C@@H](CCC(=O)O)C(=O)N[C@@H](CCCCN)C(=O)N[C@@H](CCC(N)=O)C(=O)N[C@@H](CCC(N)=O)C(=O)N[C@@H](C)C(=O)N[C@H](C(=O)N[C@@H](CCC(=O)O)C(=O)N[C@@H](CC(N)=O)C(=O)N[C@@H](C)C(=O)N[C@@H](CCC(N)=O)C(=O)N[C@H](C(=O)N[C@@H](CC(C)C)C(=O)N[C@@H](C)C(=O)N[C@@H](CCC(N)=O)C(=O)N[C@H](C(N)=O)C(C)C)[C@@H](C)CC)[C@@H](C)O)[C@@H](C)CC)[C@@H](C)CC)C(C)C)C(C)C [Compound 53] (H-IVLSLDVPIGLLQILLK([AEEA-AEEA-γGlu-γGlu-C18 diacid])QEKQEKEKQQATENAQILAQV-NH2) |  | 4.01

Second part, led by results:

EC50 [1] [nM] | SMILES | EC50 [nM]
2.86 | CC[C@H](C)[C@H](N)C(=O)N[C@H](C(=O)N[C@@H](CC(C)C)C(=O)N[C@@H](CO)C(=O)N[C@@H](CC(C)C)C(=O)N[C@@H](CC(=O)O)C(=O)N[C@H](C(=O)N1CCC[C@H]1C(=O)N[C@H](C(=O)N[C@@H](CCCCNC(=O)COCCOCCNC(=O)COCCOCCNC(=O)CC[C@H](NC(=O)CC[C@H](NC(=O)CCCCCCCCCCCCCCCCC(=O)O)C(=O)O)C(=O)O)C(=O)N[C@@H](CC(C)C)C(=O)N[C@@H](CC(C)C)C(=O)N[C@@H](CCC(N)=O)C(=O)N[C@H](C(=O)N[C@@H](CC(C)C)C(=O)N[C@@H](CC(C)C)C(=O)N[C@@H](CCC(=O)O)C(=O)N[C@@H](CCC(N)=O)C(=O)N[C@@H](CCC(=O)O)C(=O)N[C@@H](CCCCN)C(=O)N[C@@H](CCC(N)=O)C(=O)N[C@@H](CCC(=O)O)C(=O)N[C@@H](CCCCN)C(=O)N[C@@H](CCC(=O)O)C(=O)N[C@@H](CCCCN)C(=O)N[C@@H](CCC(N)=O)C(=O)N[C@@H](CCC(N)=O)C(=O)N[C@@H](C)C(=O)N[C@H](C(=O)N[C@H](C(=O)N[C@@H](CC(N)=O)C(=O)N[C@@H](C)C(=O)N[C@@H](CCC(N)=O)C(=O)N[C@H](C(=O)N[C@@H](CC(C)C)C(=O)N[C@@H](C)C(=O)N[C@@H](CCC(N)=O)C(=O)N[C@H](C(N)=O)C(C)C)[C@@H](C)CC)[C@@H](C)O)[C@@H](C)O)[C@@H](C)CC)[C@@H](C)CC)C(C)C)C(C)C [Compound 49] (H-IVLSLDVPIK([AEEA-AEEA-γGlu-γGlu-C18 diacid])LLQILLEQEKQEKEKQQATTNAQILAQV-NH2) | 
1.16 | CC[C@H](C)[C@H](N)C(=O)N[C@H](C(=O)N[C@@H](CC(C)C)C(=O)N[C@@H](CO)C(=O)N[C@@H](CC(C)C)C(=O)N[C@@H](CC(=O)O)C(=O)N[C@H](C(=O)N1CCC[C@H]1C(=O)N[C@H](C(=O)NCC(=O)N[C@@H](CC(C)C)C(=O)N[C@@H](CC(C)C)C(=O)N[C@@H](CCC(N)=O)C(=O)N[C@H](C(=O)N[C@@H](CC(C)C)C(=O)N[C@@H](CC(C)C)C(=O)N[C@@H](CCC(=O)O)C(=O)N[C@@H](CCC(N)=O)C(=O)N[C@@H](CCC(=O)O)C(=O)N[C@@H](CCCCN)C(=O)N[C@@H](CCC(N)=O)C(=O)N[C@@H](CCC(=O)O)C(=O)N[C@@H](CCCCN)C(=O)N[C@@H](CCC(=O)O)C(=O)N[C@@H](CCCCN)C(=O)N[C@@H](CCC(N)=O)C(=O)N[C@@H](CCC(N)=O)C(=O)N[C@@H](C)C(=O)N[C@@H](CCCCNC(=O)COCCOCCNC(=O)COCCOCCNC(=O)CC[C@H](NC(=O)CC[C@H](NC(=O)CCCCCCCCCCCCCCCCC(=O)O)C(=O)O)C(=O)O)C(=O)N[C@H](C(=O)N[C@@H](CC(N)=O)C(=O)N[C@@H](C)C(=O)N[C@@H](CCC(N)=O)C(=O)N[C@H](C(=O)N[C@@H](CC(C)C)C(=O)N[C@@H](C)C(=O)N[C@@H](CCC(N)=O)C(=O)N[C@H](C(N)=O)C(C)C)[C@@H](C)CC)[C@@H](C)O)[C@@H](C)CC)[C@@H](C)CC)C(C)C)C(C)C [Compound 52] (H-IVLSLDVPIGLLQILLEQEKQEKEKQQAK([AEEA-AEEA-γGlu-γGlu-C18 diacid])TNAQILAQV-NH2) | 

Reference: patent US10894817B2, “Fatty acid modified urocortin-2 analogs for the treatment of diabetes and chronic kidney disease” (priority 2016, dated 2021)
